# Data taken from the RepoRT retention time repository (doi:10.1021/acs.analchem.2c02893).
# Columns and labels:
# Conditions in all cases: stereoisomer not certain
# [1] = RP, Waters ACQUITY UPLC BEH C18, 100 × 2.1 mm, 1.7 µm, 30 °C, 0.35 mL/min, estimated dead time 0.63 min; A: water + 0.01% formic acid + 5 mM ammonium formate, pH 3.71; B: acetonitrile + 0.01% formic acid, pH 3.71; gradient (min/%B) 0/10 3/10 22/100 30/100 30.1/10 40/10
# [2] = RP, Thermo Scientific Acclaim RSLC 120 C18, 100 × 2.1 mm, 2.2 µm, 30 °C, 0.2 mL/min, estimated dead time 1.1 min; A: 90% water + 10% methanol + 0.01% formic acid + 5 mM ammonium formate, pH 3.61; B: methanol + 0.01% formic acid + 5 mM ammonium formate, pH 3.61; gradient (min/%B) 0/1 1/1 2/39 13/99.9 15/99.9 15.1/1 20.1/1
# [3] = RP, Waters ACQUITY UPLC BEH C18, 100 × 2.1 mm, 1.7 µm, 35 °C, 0.35 mL/min, estimated dead time 0.63 min; A: water + 0.01% formic acid + 5 mM ammonium formate, pH 3.71; B: acetonitrile + 0.01% formic acid, pH 3.71; gradient (min/%B) 0/5 0.5/5 16/95 16.1/99 19/99 19.1/5 21/5
# [4] = RP, Thermo Scientific Acclaim RSLC 120 C18, 100 × 2.1 mm, 2.2 µm, 30 °C, 0.2 mL/min, estimated dead time 1.1 min; A: water + 0.1% formic acid, pH 2.6; B: methanol + 0.1% formic acid, pH 2.6; gradient (min/%B) 0/10 4/50 17/95 25/95 25.1/10 30/10
Compound,LC retention time [2],LC retention time [1],LC retention time [3],LC retention time [4]
C[N+](C)(C)CCCl [Chlormequate],,0.84 min,0.84 min,
CN(C)CC1CCCCC1(O)c1cccc(O)c1 (centres undefined) [Tramadol-O-Desmethyl],4.06 min,3.56 min,3.48 min,3.86 min
NCC(O)c1ccccc1 (centres undefined) [Apophedrin (Phenylethanolamine)],,1.38 min,1.65 min,2.34 min
C#CCN(C)C(C)Cc1ccccc1 (centres undefined) [Deprenyl/Selegiline],,5.98 min,4.53 min,4.32 min
CC(N)Cc1ccc2c(c1)OCO2 (centres undefined) [MDA],4.19 min,3.36 min,3.46 min,3.96 min
COC(=O)c1ccccc1C(=O)OC [Phthalate-Dimethyl],6.63 min,9.38 min,7.03 min,7.52 min
CC12CCC(O)CC1CCC1C2C(=O)CC2(C)C1CCC2(O)C(=O)CO (centres undefined),9.21 min,9.93 min,7.37 min,11.2 min
CCCCCc1cc(O)c2c(c1)OC(C)(C)C1CCC(C)=CC21 (centres undefined) [THC],14 min,19.6 min,15.1 min,18.7 min
CC(C)(C)NCC(O)c1ccc(O)c(CO)c1 (centres undefined) [Albuterol/Salbutamol],,1.28 min,1.92 min,2.71 min
CCC(C)C1OC2(CCC1C)CC1CC(CC=C(C)C(OC3CC(OC)C(OC4CC(OC)C(O)C(C)O4)C(C)O3)C(C)C=CC=C3COC4C(O)C(C)=CC(C(=O)O1)C34O)O2 (centres undefined) [Ivermectin],,21.1 min,17 min,20.4 min
NC(=O)N=C(N)N [Guanylurea],,0.83 min,0.86 min,
CCNC(C)Cc1cccc(C(F)(F)F)c1 (centres undefined) [Fenfluramine],,8.46 min,6.21 min,5.84 min
Nc1ncn[nH]1 [Amitrole],1.44 min,0.91 min,0.88 min,
CCC(C)C1OC2(C=CC1C)CC1CC(CC=C(C)C(OC3CC(OC)C(OC4CC(OC)C(O)C(C)O4)C(C)O3)C(C)C=CC=C3COC4C(O)C(C)=CC(C(=O)O1)C34O)O2 (centres undefined) [Avermectin],,18.8 min,14.6 min,18.7 min
COP(=O)(OC)C(O)C(Cl)(Cl)Cl (centres undefined) [Trichlorfon],,5.41 min,4.26 min,5.86 min
O=c1[nH]c2ccccc2s1 [Benzothiazole-2-OH],,7.78 min,5.76 min,7.4 min
c1cc2c(cc1CN1CCNCC1)OCO2 [Piperazine-1-Piperonyl],,2.63 min,3.2 min,2.56 min
CCC(C)C1OC2(C=CC1C)CC1CC(CC=C(C)C(OC3CC(OC)C(OC4CC(OC)C(NC)C(C)O4)C(C)O3)C(C)C=CC=C3COC4C(O)C(C)=CC(C(=O)O1)C34O)O2 (centres undefined) [Emamectin],,16.3 min,12.6 min,14.3 min
CC12CCC(=O)C=C1CCC1C2CCC2(C)C(O)CCC12 (centres undefined) [Testosterone],,11.6 min,8.76 min,12.2 min
CCCCCn1cc(C(=O)c2ccc(C)c3ccccc23)c2ccccc21 [JWH-122],12.9 min,,,

Compound,LC retention time [2],LC retention time [1],LC retention time [3],LC retention time [4]
CC(C)OC(=O)Nc1ccc2nc(-c3cscn3)[nH]c2c1 [Cambendazol],7.66 min,,,
CCCCNC(=O)n1c(NC(=O)OC)nc2ccccc21 [Benomyl (decomposed to Carbendazim)],5.46 min,,,
CC(C)(Oc1ccc(CCNC(=O)c2ccc(Cl)cc2)cc1)C(=O)O [Bezafibrate],8.77 min,,,
CCN(CC)C(C)C(=O)c1ccccc1 (centres undefined) [Amfepramone],4.11 min,,,
Cc1ccccc1CC(C)N (centres undefined) [Amphetamine-2-methyl (ortetamine)],5.17 min,,,
CCOCn1c(-c2ccc(Cl)cc2)c(C#N)c(Br)c1C(F)(F)F [Chlorfenapyr],11.8 min,,,
CC(Cc1ccccc1)NCCCCl (centres undefined) [Mefenorex],5.31 min,,,
O=C(c1cccc2ccccc12)c1nn(CCCCCF)c2ccccc12 [THJ-2201],11.9 min,,,
O=C(NC(CO)C(O)c1ccc([N+](=O)[O-])cc1)C(Cl)Cl (centres undefined) [CAF-3],12.7 min,,,
Clc1ccc2c(c1)C(c1ccccc1)=NCc1nncn1-2 [Estazolam],8.14 min,,,
NC(=O)c1cc[n+](CC2=C(C(=O)[O-])N3C(=O)C(NC(=O)Cc4cccs4)C3SC2)cc1 (centres undefined) [Cefalonium],4.03 min,,,
O=C(O)c1cc(Oc2ccc(Cl)cc2Cl)ccc1[N+](=O)[O-] [Bifenox acid],8.71 min,,,
CCc1cccc(C)c1N(C(=O)C(=O)O)C(C)C(=O)O (centres undefined),6.84 min,,,
Cc1ccccc1-n1c(C)nc2ccccc2c1=O [Methaqualone],7.83 min,,,
Oc1ccc2c3c1OC1C(O)CCC4(O)C(C2)N(CC2CCC2)CCC314 (centres undefined) [Nalbuphine],4.17 min,,,
CCc1cc2c(s1)-n1c(C)nnc1CN=C2c1ccccc1Cl [Etizolam],8.31 min,,,
CN(C)C(=O)Nc1cccc(C(F)(F)F)c1 [Fluometuron],7.85 min,,,
COc1ccc(OC)c(CC(C)N)c1 (centres undefined) [2-5-DMA],4.78 min,,,
Nc1nc(N)nc(N)n1 [Melamine],1.45 min,,,

# Further lines, with some results ahead:
LC retention time [2],Compound,LC retention time [1],LC retention time [3],LC retention time [4]
1.58 min,NCCc1cnc[nH]1 [Histamine],0.99 min,0.94 min,
13.4 min,CCCCC(CC)COC(=O)C(C#N)=C(c1ccccc1)c1ccccc1 (centres undefined) [Octocrylene],19.8 min,15.3 min,18 min
3.75 min,CN1C(=O)CCC1c1cccnc1 (centres undefined) [Cotinine],1.41 min,2.06 min,1.71 min
4.36 min,CCN1CCN(C(=O)NC(C(=O)NC2C(=O)N3C(C(=O)O)=C(CSc4nnnn4C)CSC23)c2ccc(O)cc2)C(=O)C1=O (centres undefined) [Cefoperazone],6.08 min,4.19 min,5.37 min
4.54 min,CCN(CC)CC(=O)Nc1c(C)cccc1C [Lidocaine],5.29 min,4.18 min,4.46 min
7.79 min,NC(=O)c1ccccc1Oc1ccccc1 [Phenoxybenzamide],11.5 min,8.66 min,9.15 min
2.73 min,NC(=O)c1cccnc1 [Nicotinamide],1.06 min,1.2 min,1.69 min
6.59 min,CC(C)NCC(O)COc1cccc2ccccc12 (centres undefined) [Propranolol],8.91 min,6.49 min,6.27 min
3.93 min,Cn1c(=O)c2[nH]cnc2n(C)c1=O [Theophylline],1.66 min,2.31 min,4.14 min
3.8 min,Nc1ccc(S(=O)(=O)Nc2ccccn2)cc1 [Sulfapyridine],,,
10.8 min,C#CC1(OC(C)=O)CCC2C3CCC4=CC(=O)CCC4C3CCC21C (centres undefined) [Norethisterone acetate],,,
4.88 min,N=c1nc(N2CCCCC2)cc(N)n1O [Minoxidil],,,
7.35 min,CC(C)[N+](C)(CCOC(=O)C1c2ccccc2Oc2ccccc21)C(C)C [Propantheline (I+)],,,
6.47 min,CC(CN1c2ccccc2Sc2cccnc21)N(C)C (centres undefined) [Isothipendyl],,,
4.77 min,Nc1c2c(nc3ccccc13)CCCC2 [Tacrine],,,
9.05 min,CCC(c1ccccc1)c1c(O)c2ccccc2oc1=O (centres undefined) [Phenprocoumon],,,
8.28 min,CC1CC2C3CC(F)C4=CC(=O)C=CC4(C)C3(F)C(O)CC2(C)C1(O)C(=O)CO (centres undefined) [Flumethasone],,,
7.9 min,CCc1cc2c(cc1CC)CC(NCC(O)c1ccc(O)c3[nH]c(=O)ccc13)C2 (centres undefined) [Indacaterol],,,
8.05 min,COC1=CC(=O)CC(C)C12Oc1c(Cl)c(OC)cc(OC)c1C2=O (centres undefined) [Griseofulvin],,,
10.5 min,CC(C)(C)C(O)C(=Cc1ccc(Cl)cc1)n1cncn1 (centres undefined) [Uniconazole],,,
6.82 min,COc1cc(NC(C)CCCN)c2ncccc2c1 (centres undefined) [Primaquine],,,
7.83 min,CCCOc1ccc(S(=O)(=O)NCCC2CCCN2C)cc1-c1nc2c(CCC)nn(C)c2c(=O)[nH]1 (centres undefined) [Udenafil],,,
5.81 min,Nc1ccc(S(=O)(=O)Nc2cnc3ccccc3n2)cc1 [Sulfaquinoxaline],,,
